# Measurements from PubChem BioAssay AID434951 (Broad Institute, 2010).
# The source made the active and inactive calls.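 Rule for the calls: active = a fitted half-maximal concentration EC50 for the rise in nuclear signal no higher than ten times the top dose tested; inconclusive = flat fit with activity between 30% and 70%, or unusable fit; inactive = EC50 beyond ten times the top dose.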
# Target: Hypoxia-inducible factor 1-alpha (Homo sapiens) (UniProt Q16665)
# Test: HIF pathway activation, GFP-HIF1alpha translocation – imaging, fluorescence, U2OS GFP-HIF1alpha, confirmation (AID 434951)
# Conditions: U2OS GFP-HIF1alpha nuclear intensity, high-content imaging
# Hypoxia-inducible factor 1-alpha (Homo sapiens), sequence (Q16665 whole entry, looked up): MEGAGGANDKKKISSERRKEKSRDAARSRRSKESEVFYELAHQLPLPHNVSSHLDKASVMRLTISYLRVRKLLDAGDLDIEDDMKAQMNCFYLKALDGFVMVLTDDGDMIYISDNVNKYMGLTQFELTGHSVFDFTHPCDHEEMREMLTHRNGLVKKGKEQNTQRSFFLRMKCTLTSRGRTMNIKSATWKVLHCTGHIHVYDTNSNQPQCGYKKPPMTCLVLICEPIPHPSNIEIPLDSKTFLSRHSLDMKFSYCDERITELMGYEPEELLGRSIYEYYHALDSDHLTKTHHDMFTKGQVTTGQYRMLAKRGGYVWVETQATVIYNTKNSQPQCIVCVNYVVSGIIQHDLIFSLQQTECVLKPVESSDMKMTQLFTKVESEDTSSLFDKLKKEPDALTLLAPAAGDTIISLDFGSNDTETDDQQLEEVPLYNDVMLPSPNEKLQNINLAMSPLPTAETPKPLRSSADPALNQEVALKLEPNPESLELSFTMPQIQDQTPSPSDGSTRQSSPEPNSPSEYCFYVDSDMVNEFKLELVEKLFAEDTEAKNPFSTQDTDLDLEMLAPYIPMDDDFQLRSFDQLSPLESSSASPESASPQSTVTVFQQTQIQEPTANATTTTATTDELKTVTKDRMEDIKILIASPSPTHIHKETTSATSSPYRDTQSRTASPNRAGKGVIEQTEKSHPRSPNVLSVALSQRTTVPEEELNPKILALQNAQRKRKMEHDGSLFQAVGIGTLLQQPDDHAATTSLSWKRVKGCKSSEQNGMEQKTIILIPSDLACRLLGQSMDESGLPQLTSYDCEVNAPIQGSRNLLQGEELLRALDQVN
row,Structure (SMILES),EC50
1,Cc1ccc(Nc2c(-c3ccccn3)nc3cccc(C)n23)cc1,4.41 µM
2,COc1ccc(/C=N/NC(=O)c2ccccc2O)cc1CSc1ccccn1,> 35 µM (inactive)
3,CCN(CC)c1ccc(/C=N/NC(=O)c2cnccn2)c(O)c1,9.54 µM
4,Cc1ccc(S(=O)(=O)N2CCOC23CCN(C(=O)c2cc(Cl)ccc2Cl)CC3)cc1,> 35 µM (inactive)
5,CCOC(=O)c1cc2c(ccn2C)n1CC(=O)N1CCN(c2ccccc2)CC1,> 35 µM (inactive)
6,Cc1ccccc1-n1c(=O)n(Cc2ccc(C(=O)O)cc2)c(=O)c2[nH]cnc21,> 35 µM (inactive)
7,Cc1ccc(-n2nc3c(=O)n(CC(=O)NCc4ccccc4)nc(C)c3c2C)cc1,> 35 µM (inactive)
8,CC(=O)Nc1ccc(Nc2nc(C)c([N+](=O)[O-])c(Nc3ccc(NC(C)=O)cc3)n2)cc1,> 35 µM (inactive)
9,Cc1cc(C(=O)O)oc(=O)c1,> 35 µM (inactive)
10,C/C(=C\C(=O)OCC(=O)NCc1ccccc1)C(=O)OCC(=O)NCc1ccccc1,> 35 µM (inactive)
11,CCn1nc(NS(=O)(=O)c2ccc(NC(C)=O)cc2)c2cc3cccc(C)c3nc21,> 35 µM (inactive)
12,CC(C)NC(=S)NN=C1c2ccccc2-c2ccccc21,> 35 µM (inactive)
13,O=S(=O)(NCc1nnc2c(C(F)(F)F)cc(Cl)cn12)c1ccccc1,> 35 µM (inactive)
14,Cc1ccc(CSc2nnc(CCCCCNC(=O)OC(C)(C)C)o2)cc1,> 35 µM (inactive)
15,C/C(=N\NC(=O)Cc1ccc(Cl)cc1)c1ccccn1,5.92 µM
16,CCN(CC)CCNCc1nc2ccccc2c(=O)n1-c1ccc(F)cc1,> 35 µM (inactive)
17,COC(=O)c1cn(C)c2ccc(S(=O)(=O)N3CCCCC3)cc2c1=O,> 35 µM (inactive)
18,CCC(=O)NC(c1ccc(OC)cc1)c1cc(Cl)c2cccnc2c1O (configuration not stated),11.8 µM
19,CCN(CC)c1ccc(NC(=O)Cn2nnc(-c3cccc(OC)c3OC)n2)c(C)c1,> 35 µM (inactive)
20,Cc1cccc(C(=O)OC(C)CN2CCCC2)c1 (configuration not stated),> 35 µM (inactive)
21,Oc1ccc2ccccc2c1/C=N/Nc1nnc(-c2ncc[nH]2)c2ccccc12,8.6 µM
22,COc1ccc(CCNC(=O)c2cc(-c3cccs3)on2)cc1OC,7.39 µM
23,CC(C)CC(NC(=O)c1ccccc1NC(=O)c1ccccc1)C(=O)O (configuration not stated),> 35 µM (inactive)
24,OCCC#Cc1ccc(CN2CCN(Cc3ccccc3)C(CCO)C2)cc1 (configuration not stated),> 35 µM (inactive)
25,COc1cccc(/C=N\NC(=O)Cn2nnc3ccccc32)c1O,> 35 µM (inactive)
26,O=C(CN1CCCCC1)N1CCCc2ccccc21,> 35 µM (inactive)

row,Structure (SMILES),EC50
1,CCOc1ccc(/C=C/C(=O)c2ccccc2)cc1OC,19.7 µM
2,COc1ccc(/C=N/NC(=S)Nc2cc(S(=O)(=O)N3CCOCC3)ccc2N2CCOCC2)cc1O,> 35 µM (inactive)
3,COc1ccccc1OCc1nnc(SCC(=O)NCc2ccco2)n1-c1ccccc1,> 35 µM (inactive)
4,Oc1ccccc1C(Nc1nccs1)c1ccc2cccnc2c1O (configuration not stated),6.57 µM
5,COc1ccc(-c2cc(C(F)(F)F)nc(S(=O)(=O)CCCC(=O)Nc3cc(C)on3)n2)cc1OC,> 35 µM (inactive)
6,CC(OC(=O)COc1ccc(Nc2ccccc2)cc1)C(=O)N(C)c1ccccc1 (configuration not stated),> 35 µM (inactive)
7,O=C(Nc1ccc(Cl)cc1)NN1CC(=O)N(c2cccc(C(F)(F)F)c2)CC1=O,> 35 µM (inactive)
8,COc1ccc(/C=N/NC(=O)c2ccoc2C)cc1O,> 35 µM (inactive)
9,Cc1cccc2[nH]c(CN(C)C(=O)C3CCC(=O)N(C4CC4)C3)nc12 (configuration not stated),> 35 µM (inactive)
10,N/C(=N\OC(=O)c1cccs1)c1ccc(Cl)cc1,> 35 µM (inactive)
11,COc1ccc2nc(C)cc(SCC(=O)N/N=C/c3ccc(O)cc3O)c2c1,8.74 µM
12,Cc1ccc(-c2nnc(Sc3nc4ccccc4o3)c3ccccc23)cc1,16.9 µM
13,CCOc1ccc(NC(=O)C2CCN(S(=O)(=O)c3ccc4c(c3)N(C(C)=O)CCO4)CC2)cc1,> 35 µM (inactive)
14,COC(=O)Nc1ccc(=O)n(Cc2c(Cl)cccc2Cl)c1,> 35 µM (inactive)
15,CCOC(=O)/C(N=Nc1ccc(F)cc1)=C(/O)c1ccc([N+](=O)[O-])cc1,> 35 µM (inactive)
16,COc1ccc(-n2c(C)csc2=S)cc1,> 35 µM (inactive)
17,CCC(=O)NC(c1cccs1)c1ccc2cccnc2c1O (configuration not stated),5.48 µM
18,COC(=O)CCCC1=CC2=CC(=O)C(C)(OC(=O)c3cccs3)C(=O)C2=CN1Cc1ccc2c(c1)OCO2 (configuration not stated),> 35 µM (inactive)
19,CCOC(=O)c1sc(Nc2cccc(Cl)c2)nc1C,> 35 µM (inactive)
20,CCOC(=O)N1CCN(C(=O)c2ccc(Cn3c(=S)[nH]c4cc(OCC)c(OCC)cc4c3=O)cc2)CC1,5.64 µM
21,Cc1ccc2nc(-c3ccccc3NC(=O)CCC(=O)O)c(=O)[nH]c2c1,> 35 µM (inactive)
22,COC(=O)c1cc(S(=O)(=O)NCc2ccccc2OC)cn1C,> 35 µM (inactive)
23,CCOP(=O)(C#CC(C)(C)C)C1(O)CCCCC1 (configuration not stated),> 35 µM (inactive)
24,O=C(N/N=C/c1ccc(O)c(O)c1O)/C(=C/c1ccc([N+](=O)[O-])cc1)NC(=O)c1ccccc1,> 35 µM (inactive)
25,COc1cc(SC)ccc1C(=O)Nc1ccc(C)cc1C,> 35 µM (inactive)
26,O=C(CN1CCC(C(=O)c2ccc(Cl)cc2)CC1)Nc1ccc2c(c1)OCCO2,> 35 µM (inactive)
